We go through one compound from doi:10.1101/2020.03.08.982454v1 (biorxiv, 2020).

The structures appear in SMILES notation.

Test [1] addresses KMP-11 (Leishmania donovani, UniProt Q36736, Y48W). Kind of test: biochemical.
The target of test [2] is T1, KMP-11 (Leishmania donovani, UniProt Q36736).
T1 sequence (Q36736 1-92): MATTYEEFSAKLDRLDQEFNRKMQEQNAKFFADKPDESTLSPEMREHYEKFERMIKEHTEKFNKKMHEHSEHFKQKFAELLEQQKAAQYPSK
Kind of test: DiI C-18 fluorescence quenching, Hill fit. It is filed as binding.

Test [3] addresses KMP-11 (Leishmania donovani, UniProt Q36736, Y89W). Kind of test: biochemical.
For test [4], the target named is KMP-11 (Leishmania donovani, UniProt Q36736, Y5W). Kind of test: biochemical.
For test [5], the target named is KMP-11 (Leishmania donovani, UniProt Q36736, F62W). Kind of test: biochemical.

With `CCCCCCCCCCCCCCCC(=O)OC[C@H](COP(=O)([O-])OCC[N+](C)(C)C)OC(=O)CCCCCCCCCCCCCCC` [DPPC], the Kd – broadly, a measure of binding affinity in units of concentration – is 118 nM on KMP-11 [1]; 286 nM on KMP-11 [2]; 161 nM at KMP-11 [3]; 19.4 nM at KMP-11 [4]; 3800 nM on KMP-11 [5].
